{"source": "paper PMC8249445", "about": "“Complex effects of macrolide venturicidins on bacterial F-ATPases likely contribute to their action as antibiotic adjuvants” (Scientific Reports, 2021)", "key": {"[1]": {"test_system": "mitoFOF1", "design": "method as in PMID 124668", "settings": "cited from earlier work"}, "[2]": {"target": "T1, FOF1-ATPase of WT E. coli membranes (Escherichia coli, UniProt P68699)", "T1 construct": "To express haploid levels of EcFOF1 containing WT-ε or ε88-stop; expressed in transfected cells; host or cells: E. coli strain XH1 (chromosomal atpC deletion) carrying pMBε1; inverted membrane vesicles", "test": "biochemical", "format": "biochemical", "settings": "for ATPase rate, Early / ATPase rate, Late / Late/early ratio: 10 µM ventA final; for Ki: VentA at half-max. inhibition (Ki), early inhibition", "description": "ATP hydrolysis is enzyme-coupled to conversion of NADH to NAD^+, which results in decreased light absorbance; thus, a larger rate of ATP hydrolysis is indicated by a steeper downward slope. The system also rapidly regenerates ATP, minimizing the concentration of product ADP during the assay. Unless noted, assays were preincubated to establish a steady state hydrolysis rate (see “Methods”) before the ‘zero’ point of measurements.\nPlasmid pXH302S, which encodes the WT atpC gene and expresses near haploid levels of the ε subunit, was subjected to fusion PCR mutagenesis to construct plasmid pMBε1, with an N-terminal affinity tag ([…]) added prior to the initial Met residue. To express the ε88-stop subunit, an AfeI-ScaI restriction fragment of WT pMBε1 was replaced by the analogous fragment from pH6ε88-stop[46]. To express haploid levels of EcFOF1 containing WT-ε or ε88-stop, the appropriate version of pMBε1 was transformed into E. coli strain XH1, which has a chromosomal deletion of the atpC gene for ε[54]. For these transformed strains, cultures were grown and inverted membrane vesicles (IMV) were prepared according to [55]. WT ε, with the same N-terminal His6-tag, was over-expressed from pH6ε and purified as described.\nATP hydrolysis by membrane vesicles was assayed spectrophotometrically[57] at 30 °C using an open-chamber, diode array spectrophotometer (Hewlett Packard 8453 UV–Vis) as described in[29]. The assay medium (1 ml per assay) contained 20 mM Mops/Tris, pH 8.0, 0.2 mM EDTA, 10 mM CH3COOK, 1 mM ATP, 3.2 mM Mg(CH3COO)2, 1 mM phosphoenolpyruvate, at least 0.3 mM NADH, 0.1 mg/ml pyruvate kinase, 0.1 mg/ml lactate dehydrogenase, 5 mM KCN, and 5 μM carbonyl cyanide 4-(trifluoromethoxy)-phenylhydrazone. […] To avoid interference of this increase with the changes of ATPase activity induced by venturicidins, unless indicated otherwise, measurement of ATPase activities were started 60 min after addition of membranes to the complete assay medium. […] To keep absorbance between 1.5 and 2 units after the 60-min preincubation, up to 0.2 mM additional NADH was added to the assay medium. In figures displaying activity traces, some traces are shifted vertically for visual clarity."}, "[3]": {"settings": "preincubation +MgATP, no ventA, selenite"}, "[4]": {"settings": "preincubation No MgATP, +ventA (trace 2), 40 mM selenite"}, "[5]": {"settings": "WT + 6 μM azide (Fig. 2C), best fit of early rates"}, "[6]": {"settings": "WT + 38.5 mM selenite (Fig. 2B), best fit of early rates"}}}
{"smiles": "CCC(=O)C(C)C(O)C(C)CC(C)C1OC(=O)CC2(O)CC=C(C)C(O2)C(C)=CCCCC(OC2CC(OC(N)=O)C(O)C(C)O2)C=CC(C)CC1C", "note": "(centres unmarked) [ventA, venturicidin A]", "values": [{"measurement": "Stimulation of solubilized ATPase", "setting": "[1]; detergent-solubilized mitoFOF1", "value": "up to 3 fold"}, {"measurement": "Inhibition of membrane ATPase", "setting": "[1]; mitoFOF1 in membranes", "value": 95, "unit": "%"}, {"measurement": "Late rate (last 3 min of assay)", "setting": "[2]; 9.5 μM ventA, 38.5 mM selenite (Fig. 5A #3)", "value": 2.7, "unit": "U/mg"}, {"measurement": "Rate during 100 s immediately before adding ε", "setting": "[2]; 9.5 μM ventA, 38.5 mM selenite (Fig. 5A trace #4)", "value": 2.5, "unit": "U/mg"}, {"measurement": "ATPase rate, Early", "setting": "[2]; [3]", "value": 1.27, "unit": "U/mg"}, {"measurement": "ATPase rate, Late", "setting": "[2]; [3]", "value": 2.97, "unit": "U/mg"}, {"measurement": "Late/early ratio", "setting": "[2]; [3]", "value": 2.34}, {"measurement": "ATPase rate, Early", "setting": "[2]; [4]", "value": 1.22, "unit": "U/mg"}, {"measurement": "ATPase rate, Late", "setting": "[2]; [4]", "value": 2.93, "unit": "U/mg"}, {"measurement": "Late/early ratio", "setting": "[2]; [4]", "value": 2.40}, {"measurement": "Decrease of initial ATPase rate", "setting": "[2]; 30 min preincubation with 10 μM ventA without ATP, selenite present", "value": "about 40%"}, {"measurement": "Ki", "setting": "[2]; WT + 6 μM azide (Fig. 2C)", "value": 1.7, "unit": "µM"}, {"measurement": "Ki", "setting": "[2]; WT + 38.5 mM selenite (Fig. 2B)", "value": 0.23, "unit": "µM"}, {"measurement": "Ki", "setting": "[2]; WT, alone (Fig. 2A)", "value": 0.7, "unit": "µM"}, {"measurement": "ATPase at saturating ventA (y0)", "setting": "[2]; [5]", "value": "36% (± 4)"}, {"measurement": "VentA-sensitive ATPase (y1)", "setting": "[2]; [5]", "value": "106% (± 5)"}, {"measurement": "ATPase at saturating ventA (y0)", "setting": "[2]; [6]", "value": "53% (± 1)"}, {"measurement": "VentA-sensitive ATPase (y1)", "setting": "[2]; [6]", "value": "46% (± 2)"}, {"measurement": "Sensitivity to immediate inhibition, selenite vs azide", "setting": "[2]; WT EcFOF1, MgADP-inhibited state minimized by selenite vs increased by azide", "value": "~ sevenfold"}, {"measurement": "Increase of early Ki value by azide", "setting": "[2]; WT, 6 µM azide vs none", "value": 2.4, "unit": "fold"}, {"measurement": "ATPase at saturating ventA (y0)", "setting": "[2]; WT, alone (Fig. 2A), best fit of early rates", "value": "47% (± 2)"}, {"measurement": "VentA-sensitive ATPase (y1)", "setting": "[2]; WT, alone (Fig. 2A), best fit of early rates (within 1 min after adding ventA)", "value": "80% (± 5)"}, {"measurement": "Reduction of Ki for early inhibition by selenite", "setting": "[2]; WT, with vs without selenite", "value": "threefold"}, {"measurement": "Immediate increase in ATPase rate, first minute post-addition", "setting": "[2]; lower ventA concentration (Fig. 1, trace 2), no effector", "value": 11, "unit": "%"}, {"measurement": "inhibition at 10 µM", "setting": "[2]; read-out: Additional time-dependent inhibition", "value": "~25", "unit": "%"}, {"measurement": "ATPase activity during the last 3 min of assays", "setting": "[2]; ventA added after 0.1 mM DCCD (trace 3, 15 μM ventA), no selenite", "value": "0.49 (± 0.06) U/mg"}, {"measurement": "ATPase activity during the last 3 min of assays", "setting": "[2]; ventA added before 0.1 mM DCCD (trace 2, 10 μM ventA), no selenite", "value": "0.53 (± 0.05) U/mg"}, {"measurement": "ATPase activity during the last 3 min of assays", "setting": "[2]; ventA after 0.1 mM DCCD (trace 3, 15 μM ventA), 38.5 mM selenite", "value": 2.84, "unit": "U/mg"}, {"measurement": "ATPase activity during the last 3 min of assays", "setting": "[2]; ventA before 0.1 mM DCCD (trace 2, 10 μM ventA), 38.5 mM selenite", "value": 2.93, "unit": "U/mg"}]}
